These results are taken from patent US8492559B2, “Substituted indole compounds” (Gruenenthal GmbH, priority 2009, dated 2013).

The assay addresses T1, B1R receptor of the rat (rB1R) (Rattus norvegicus, UniProt P97583).
T1 construct: expressed in transfected cells; host or cells: CHO K1 cells
T1 sequence (P97583 1-337): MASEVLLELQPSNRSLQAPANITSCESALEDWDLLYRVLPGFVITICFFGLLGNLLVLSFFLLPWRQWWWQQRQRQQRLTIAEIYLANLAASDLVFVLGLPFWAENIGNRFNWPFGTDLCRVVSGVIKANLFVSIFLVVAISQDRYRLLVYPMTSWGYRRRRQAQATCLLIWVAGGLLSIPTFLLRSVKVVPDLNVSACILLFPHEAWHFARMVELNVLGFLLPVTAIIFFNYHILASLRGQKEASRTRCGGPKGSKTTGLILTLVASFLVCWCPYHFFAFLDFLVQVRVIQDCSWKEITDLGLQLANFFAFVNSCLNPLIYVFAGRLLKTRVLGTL
In words: Functional investigation on the bradykinin 1 receptor (B1R), FLIPR Ca2+ assay, rB1R cells. In kind it is cell-based. To be noted: CHO K1 cells with rat B1R, agonist Des-Arg9 bradykinin, % of maximum achievable inhibition; for B1R antagonism, rat [10 μM] % inhibition: 10 μM test substance; for inhibition at 10 µM: CHO-K1, 10 μM test substance, read-out: B1R antagonism, rat [10 μM] % inhibition. In a few lines:
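Cells plated at 20,000-35,000/well, incubated overnight at 37° C, loaded with Fluo-4 (2.13 μM, 60 min, 37° C, or 2.5 μM in buffer A), then read in FLIPR (λex 488, λem 540 nm). Agonist: Lys-Des-[MUT] bradykinin (0.5 nM) or Des-[MUT] bradykinin (100 nM). IC50 from % inhibition versus maximum, n=2-3, N>=2.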

Take `COc1cc(C)c(S(=O)(=O)Nc2cccc3ccn(CC(=O)N4CCC(Oc5ccncc5)CC4)c23)c(C)c1` [Compound G-03, 4-Methoxy-2,6-dimethyl-N-[1-[2-oxo-2-(4-pyridin-4-yloxy-piperidin-1-yl)-ethyl]-1H-indol-7-yl]-benzenesulfonic acid amide]: the “B1R antagonism, rat [10 μM] % inhibition” value (10 µM) was determined as 90%.
Consider `COc1cc(C)c(S(=O)(=O)Nc2cccc3ccn(CCC(=O)N(C)CCCN4CCC(c5ccccc5)(N(C)C)CC4)c23)c(C)c1` [G_CC-49, N-[3-(4-Dimethylamino-4-phenyl-piperidin-1-yl)-propyl]-3-[7-[[(4-methoxy-2,6-dimethyl-phenyl)sulfonyl]amino]-1H-indol-1-yl]-N-methyl-propionamide], for which the inhibition at 10 µM came to 92%.
For `Cc1cc(S(=O)(=O)Nc2ccc3ccn(CC(=O)NCCC4CCN(c5ccncc5)CC4)c3c2)c(C)cc1Cl` [G_CC-24, 2-[6-[[(4-Chloro-2,5-dimethyl-phenyl)sulfonyl]amino]-1H-indol-1-yl]-N-[2-(1-pyridin-4-yl-piperidin-4-yl)-ethyl]-acetamide], the inhibition at 10 µM stood at 89%.
The same measure, in the same setting: as for `COc1cc(C)c(S(=O)(=O)Nc2cccc3ccn(CCC(=O)N4CCC(O)(c5ccccn5)CC4)c23)c(C)c1` [G_CC-45, N-[1-[3-(4-Hydroxy-4-pyridin-2-yl-piperidin-1-yl)-3-oxo-propyl]-1H-indol-7-yl]-4-methoxy-2,6-dimethyl-benzenesulfonic acid amide], the figure is 59%; as for `CN(CCCN1CCC(c2ccccc2)(N(C)C)CC1)C(=O)Cn1ccc2cccc(NS(=O)(=O)c3cccc4ccccc34)c21` [G_CC-16, N-[3-(4-Dimethylamino-4-phenyl-piperidin-1-yl)-propyl]-N-methyl-2-[7-[(naphthalen-1-ylsulfonyl)amino]-1H-indol-1-yl]-acetamide], 67%.
On the same count and under the same terms, as for `COc1cc(C)c(S(=O)(=O)Nc2cccc3ccn(CC(=O)N4CCN(C(=O)c5cccnc5)CC4)c23)c(C)c1` [G_CC-139, 4-Methoxy-2,6-dimethyl-N-[1-[2-oxo-2-[4-(pyridin-3-carbonyl)-piperazin-1-yl]-ethyl]-1H-indol-7-yl]-benzenesulfonic acid amide], the figure is 50%.
For the compound `COc1cc(C)c(S(=O)(=O)Nc2cccc3ccn(CC(=O)N4CCN(CC5CCN(C)CC5)CC4)c23)c(C)c1` [G_CC-7, 4-Methoxy-2,6-dimethyl-N-[1-[2-[4-[(1-methyl-piperdin-4-yl)-methyl]-piperazin-1-yl]-2-oxo-ethyl]-1H-indol-7-yl]-benzenesulfonic acid amide], the “B1R antagonism, rat [10 μM] % inhibition” value came out at 100%.
For the compound `COc1cc(C)c(S(=O)(=O)Nc2cccc3ccn(CCC(=O)N4CCC(N5CCN(C)CC5)CC4)c23)c(C)c1` [G_CC-42, 4-Methoxy-2,6-dimethyl-N-[1-[3-[4-(4-methyl-piperazin-1-yl)-piperidin-1-yl]-3-oxo-propyl]-1H-indol-7-yl]-benzenesulfonic acid amide], the inhibition at 10 µM came out at 66%.
`COc1cc(C)c(S(=O)(=O)Nc2ccc3ccn(CC(=O)N4CCN(CC5CCN(C)CC5)CC4)c3c2)c(C)c1` [G_CC-4, 4-Methoxy-2,6-dimethyl-N-[1-[2-[4-[(1-methyl-piperdin-4-yl)-methyl]-piperazin-1-yl]-2-oxo-ethyl]-1H-indol-6-yl]-benzenesulfonic acid amide]: the “B1R antagonism, rat [10 μM] % inhibition” value came out at 99%.
Turning to `COc1cc(C)c(S(=O)(=O)Nc2ccc3ccn(CCC(=O)N(C)CCC4CCC(c5ccccc5)(N(C)C)CC4)c3c2)c(C)c1` (stereo not drawn) [G_CC-117, N-[2-(4-Dimethylamino-4-phenyl-cyclohexyl)-ethyl]-3-[6-[[(4-methoxy-2,6-dimethyl-phenyl)sulfonyl]amino]-1H-indol-1-yl]-N-methyl-propionamide], the inhibition at 10 µM worked out at 74%.
As for `COc1cc(C)c(S(=O)(=O)Nc2ccc3ccn(CCC(=O)N(C)CCCN4CCN(c5ccncc5)CC4)c3c2)c(C)c1` [G_CC-116, 3-[6-[[(4-Methoxy-2,6-dimethyl-phenyl)sulfonyl]amino]-1H-indol-1-yl]-N-methyl-N-[3-(4-pyridin-4-yl-piperazin-1-yl)-propyl]-propionamide], the inhibition at 10 µM was determined as 74%.
Same read-out and setting: as for `O=C(Cn1ccc2cccc(NS(=O)(=O)c3cccc4ccccc34)c21)N1CCC2(CC1)CCN(c1ccncc1)CC2` [G_CC-38, N-[1-[2-Oxo-2-(3-pyridin-4-yl-3,9-diazaspiro[5.5]undecan-9-yl)-ethyl]-1H-indol-7-yl]-naphthalene-1-sulfonic acid amide], the figure is 96%; as for `COc1cc(C)c(S(=O)(=O)Nc2cccc3ccn(CCC(=O)N4CCN(C5CCN(C)CC5)CC4)c23)c(C)c1` [G_CC-40, 4-Methoxy-2,6-dimethyl-N-[1-[3-[4-(1-methyl-piperidin-4-yl)-piperazin-1-yl]-3-oxo-propyl]-1H-indol-7-yl]-benzenesulfonic acid amide], 86%; as for `COc1cc(C)c(S(=O)(=O)Nc2cccc3ccn(CCC(=O)NC4CCC(c5ccccc5)(N5CCC5)CC4)c23)c(C)c1` (stereo not drawn) [G_CC-50, N-[4-(Azetidin-1-yl)-4-phenyl-cyclohexyl]-3-[7-[[(4-methoxy-2,6-dimethyl-phenyl)sulfonyl]amino]-1H-indol-1-yl]-propionamide], 62%.
The same measure, in the same setting: as for `O=C(Cn1ccc2ccc(N3Cc4cccc(Cl)c4C3=O)cc21)NCC1CCN(c2ccncc2)CC1` [G_CC-111, 2-[6-(4-Chloro-3-oxo-1,2-dihydro-isoindol-2-yl)-1H-indol-1-yl]-N-[(1-pyridin-4-yl-piperidin-4-yl)-methyl]-acetamide], the figure is 81%.
The same measure, in the same setting: as for `COc1cc(C)c(S(=O)(=O)Nc2ccc3ccn(CCC(=O)N(C)CCN4CCC(c5cccc(F)c5)(N5CCN(C)CC5)CC4)c3c2)c(C)c1` [G_CC-81, N-[2-[4-(3-Fluorophenyl)-4-(4-methyl-piperazin-1-yl)-piperidin-1-yl]-ethyl]-3-[6-[[(4-methoxy-2,6-dimethyl-phenyl)sulfonyl]amino]-1H-indol-1-yl]-N-methyl-propionamide], the figure is 103%; as for `COc1cc(C)c(S(=O)(=O)Nc2ccc3ccn(CC(=O)N(C)CCCN4CCC(c5cccs5)(N(C)C)CC4)c3c2)c(C)c1` [G_CC-29, N-[3-(4-Dimethylamino-4-thiophen-2-yl-piperidin-1-yl)-propyl]-2-[6-[[(4-methoxy-2,6-dimethyl-phenyl)sulfonyl]amino]-1H-indol-1-yl]-N-methyl-acetamide], 92%; as for `COc1cc(C)c(S(=O)(=O)Nc2cccc3ccn(CC(=O)N4CCC(c5cccs5)(N(C)C)CC4)c23)c(C)c1` [G_CC-20, N-[1-[2-(4-Dimethylamino-4-thiophen-2-yl-piperidin-1-yl)-2-oxo-ethyl]-1H-indol-7-yl]-4-methoxy-2,6-dimethyl-benzenesulfonic acid amide], 86%.
`O=C(CCn1ccc2ccc(N3Cc4cccc(Cl)c4C3=O)cc21)N1CCC(Oc2ccncc2)CC1` [G_CC-68, 7-Chloro-2-[1-[3-oxo-3-(4-pyridin-4-yloxy-piperidin-1-yl)-propyl]-1H-indol-6-yl]-2,3-dihydro-isoindol-1-one]: the inhibition at 10 µM amounted to 69%.
Take `CN(CCC1CCC(c2ccccc2)(N(C)C)CC1)C(=O)CCn1ccc2ccc(N3Cc4cccc(Cl)c4C3=O)cc21` (stereo not drawn) [G_CC-127, 3-[6-(4-Chloro-3-oxo-1,2-dihydro-isoindol-2-yl)-1H-indol-1-yl]-N-[2-(4-dimethylamino-4-phenyl-cyclohexyl)-ethyl]-N-methyl-propionamide]: the inhibition at 10 µM came out at 63%.
Same read-out and setting: the result for `COc1cc(C)c(S(=O)(=O)Nc2ccc3ccn(CC(=O)NCCN4CCC(c5cccs5)(N(C)C)CC4)c3c2)c(C)c1` [G_CC-30, N-[2-(4-Dimethylamino-4-thiophen-2-yl-piperidin-1-yl)-ethyl]-2-[6-[[(4-methoxy-2,6-dimethyl-phenyl)sulfonyl]amino]-1H-indol-1-yl]-acetamide] reads 53%.
On the same count and under the same terms, as for `COc1cc(C)c(S(=O)(=O)Nc2ccc3ccn(CCC(=O)N4CCC5(CC4)CCN(c4ccncc4)CC5)c3c2)c(C)c1` [G_CC-35, 4-Methoxy-2,6-dimethyl-N-[1-[3-oxo-3-(3-pyridin-4-yl-3,9-diazaspiro[5.5]undecan-9-yl)-propyl]-1H-indol-6-yl]-benzenesulfonic acid amide], the figure is 72%; as for `COc1cc(C)c(S(=O)(=O)Nc2cccc3ccn(CC(=O)N(C)CCN4CCC(c5cccc(F)c5)(N5CCN(C)CC5)CC4)c23)c(C)c1` [G_CC-102, N-[2-[4-(3-Fluorophenyl)-4-(4-methyl-piperazin-1-yl)-piperidin-1-yl]-ethyl]-2-[7-[[(4-methoxy-2,6-dimethyl-phenyl)sulfonyl]amino]-1H-indol-1-yl]-N-methyl-acetamide], 89%.
With `COc1cc(C)c(S(=O)(=O)Nc2cccc3ccn(CC(=O)N4CCC(Oc5ccncc5)CC4)c23)c(C)c1` [G_CC-92, 4-Methoxy-2,6-dimethyl-N-[1-[2-oxo-2-(4-pyridin-4-yloxy-piperidin-1-yl)-ethyl]-1H-indol-7-yl]-benzenesulfonic acid amide], the inhibition at 10 µM was 98%.
